Assay results published in patent US20240376432A1, “METHOD FOR PREPARING PLURIPOTENT STEM CELL-DERIVED HEMATOPOIETIC STEM CELL AND METHOD FOR CONSTRUCTING HUMANIZED MOUSE MODEL BY USING HEMATOPOIETIC STEM CELL THUS PREPARED” (SUNGKWANG MEDICAL FOUNDATION, priority 2021, published 2024).

Test system: human pluripotent stem cells (hPSCs)
Assay: Differentiation of human pluripotent stem cells into hematopoietic stem cells, proportion of CD34+CD45+ cells by FACS
Format: cell-based
Description: Specific experiments on the method of preparing human hematopoietic stem cells were performed as follows. First, isolated human pluripotent stem cells (hPSCs) were maintained in stemMACS-IPS brew medium for 2 days. The differentiation base culture medium consisted of the following composition: Stempro 34-SFM (+stempro sup)+200 ug/ml of human Transferrin +2 mM of L-glutamine+0.5 mM of L-ascorbic acid+0.45 mM of MTG (1-thioglycerol) +1% of penicillin/streptomycin. To induce mesodermfrom the isolated hPSCs, treatment was performed with CHIR99021 (5 uM) alone, a representative example of a GSK inhibitor, for about 2 days. Next, treatment was performed with 50 ng/ml of BMP4, 50 ng/ml of VEGF, and 100 ng/ml of bFGF for 2 days to induce hemangioblasts. Next, 50 ng/ml of VEGF, 50 ng/ml of bFGF, and SB-431542 (10 μM) as representative examples of TGF-beta inhibitors and 1 μM of retinoic acid (RA) were added and cultured for about 1 day, and 0.1% (w/v) of PVA, 50 ng/ml of stem cell factor (SCF), and 10 ng/ml of bFGF were added and cultured for about 11 days (FIG. 2).
Specifically, it is widely known that vascular endothelial growth factor (VEGF) may be used to induce mesoderm and induce and maintain hemangioblasts (precursors of HSCs), and has been mainly used during the period of inducing hematopoietic stem cells. Therefore, to determine what effect it will have on the final hematopoietic stem cell generation efficiency when VEGF is excluded from the induction of hematopoietic stem cells, the results of hematopoietic stem cell differentiation according to the presence or absence of VEGF (10 ng/ml) were confirmed under the same conditions (50 ng/ml of SCF, 10 ng/ml of bFGF, 20 ng/ml of IL-3 and 10 ng/ml of IL-6) (FIG. 3A).
To confirm the differentiation results, Fluorescence Activated Cell Sorting (FACS) was performed to confirm the proportion of CD34^+CD45^+ cells. […] After washing away the remaining antibodies with staining buffer, 200 μl of staining buffer was added again and analyzed using a flow cytometer.
Specifically, in the existing method, treatment was performed with bone morphogenetic protein 4 (BMP4), VEGF, and CHIR99021 to induce mesoderm. However, it was determined that the above conditions were not compatible with the sequence of the process for differentiating stem cells into hematopoietic stem cells. […]
For this purpose, the efficiency of hematopoietic stem cell differentiation when treated with SB-431542 (SB4), a representative example of a TGF-beta inhibitor, in addition to VEGF and basic fibroblast growth factor (bFGF) for various periods of time, was determined (FIG. 5A). […]

Molecule: Cc1cnc(-c2cnc(NCCNc3ccc(C#N)cn3)nc2-c2ccc(Cl)cc2Cl)[nH]1 [CHIR99021, 6-[[2-[[4-(2,4-Dichlorophenyl)-5-(5-methyl-1H-imidazol-2-yl)-2-pyrimidinyl]amino]ethyl]amino]-3-pyridinecarbonitrile]
- ratio of CD34+CD45+ cells (CHIR99021 alone in mesoderm induction, compared with BMP4 (5 ng/ml), VEGF (50 ng/ml) and CHIR99021, FIG. 4B): significantly superior

Molecule: NC(=O)c1ccc(-c2nc(-c3ccc4c(c3)OCO4)c(-c3ccccn3)[nH]2)cc1 [SB4]
- hematopoietic stem cell differentiation efficiency (EHT induction, SB4 for a long period of time in addition to VEGF and bFGF, FIG. 5B): significantly reduced
- proportion of CD34+CD45+ cells (EHT induction, SB4 for less than 24 hours in addition to VEGF and bFGF, FIG. 5B): significantly superior

Molecule: VEGF
- ratio of CD34+CD45+ cells (VEGF (10 ng/ml) present or absent during hematopoietic stem cell induction, with 50 ng/ml SCF, 10 ng/ml bFGF, 20 ng/ml IL-3, 10 ng/ml IL-6, FIG. 3B): excluding VEGF from the induction of hematopoietic stem cells was significantly superior
